Reference: PubChem BioAssay (NCI)
“And” between values parts separate entries of the source, which are not always exact repeats. Equal values may be shown once.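 1) Cells in 96-well plates. 2) Compound, 48 h, 5 concentrations. 3) Linear interpolation between surrounding doses. 4) Unreached endpoint = highest concentration. GI50 marks 50% less growth. The concentration for full growth arrest is given as TGI.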

Experiments:
Experiment in all cases: NCI tumour cell line growth inhibition, 48 h
A498 renal = test system: A498 renal
OVCAR-5 ovarian = test system: OVCAR-5 ovarian
SR leukemia = test system: SR leukemia
ACHN renal = test system: ACHN renal
LOX IMVI melanoma = test system: LOX IMVI melanoma
NCI-H226 lung = test system: NCI-H226 lung
HCT-116 colon = test system: HCT-116 colon
RPMI-8226 leukemia = test system: RPMI-8226 leukemia
SF-295 CNS = test system: SF-295 CNS
SNB-75 CNS = test system: SNB-75 CNS

Structure (SMILES)	GI50 (A498 renal) [µM]	TGI (A498 renal)	GI50 (OVCAR-5 ovarian)	TGI (OVCAR-5 ovarian)	GI50 (SR leukemia) [µM]	GI50 (ACHN renal) [µM]	TGI (ACHN renal)	TGI (LOX IMVI melanoma)	GI50 (NCI-H226 lung)	TGI (NCI-H226 lung)	GI50 (HCT-116 colon)	TGI (HCT-116 colon)	GI50 (RPMI-8226 leukemia) [µM]	TGI (RPMI-8226 leukemia)	GI50 (SF-295 CNS)	TGI (SR leukemia) [µM]	TGI (SF-295 CNS) [µM]	GI50 (SNB-75 CNS) [nM]	TGI (SNB-75 CNS) [µM]	GI50 (LOX IMVI melanoma) [µM]
O=C(O)CCCc1ccc(N(CCCl)CCCl)cc1	28.3	48.4 µM and 302 µM	20.6 µM and 173 µM	45.4 µM and 274 µM and 374 µM	0.922	4.21	30.3 µM and 180 µM	31.9 µM and 183 µM and 265 µM	16.1 µM and 120 µM	42.4 µM and 276 µM and 362 µM	23000 nM and 144000 nM	63 µM and 389 µM and 328 µM	13	81.1 µM and 447 µM and 335 µM	11.7 µM and 64.6 µM					
O=[N+]([O-])c1ccc(NSc2ccccc2)cc1				> 100 µM			> 100 µM	28 µM				> 100 µM				63.2	79			
CC1=C(CCCOC(=O)NCCCl)C2=C(C)C3(CC3)[C@@](C)(O)C(=O)C2=C1	1.88	3.95 µM	3.13 µM	> 100 µM				19.8 µM	2.4 µM	6.33 µM	2960 nM	> 100 µM	8.4	40.1 µM	2.53 µM		7.33	1750	3.84	3.13
Cc1nc2nnc(C)n2c2c1C(=O)Nc1ccccc1N2							> 100 µM	> 100 µM		> 100 µM		> 100 µM		> 100 µM		> 100	> 100		> 100	
O=S(=O)(O)C(O)/C=C/c1ccccc1 (configuration not stated)		> 100 µM		> 100 µM			> 100 µM	> 100 µM		> 100 µM		> 100 µM				> 100	> 100		> 100	
Cc1cccc2c3ccc4c(c3n(C)c12)C(=O)C=CC4=O										> 100 µM		> 100 µM		> 100 µM		> 100	> 100		> 100	
CCCCCCCCCCCCOC1C(CNCC2OC3OC(C)(C)OC3C2NC(=O)Nc2ccc(C(=O)OCC)cc2)OC2OC(C)(C)OC21 (configuration not stated)	12.8	25.5 µM	4.18 µM	17 µM		3.43	10.9 µM	3.92 µM	6.23 µM	22.7 µM	1720 nM	3.14 µM	2.13	4.53 µM	6.31 µM		20	5520	21.1	1.99
O=C(O)/C=C/C(=O)Nc1ncn[nH]1		> 100 µM		> 100 µM			> 100 µM	> 100 µM		> 100 µM		> 100 µM		> 100 µM			> 100		> 100	
S=C1NCCN1C1=Nc2ccccc2CO1			> 100 µM	> 100 µM	> 100	> 100	> 100 µM	> 100 µM	> 100 µM	> 100 µM	> 100000 nM	> 100 µM	> 100	> 100 µM	> 100 µM	> 100	> 100	22500	> 100	> 100
COc1cccc(-c2nc(-c3cnccn3)n(Cc3ccccc3)n2)c1				> 100 µM				> 100 µM				> 100 µM		> 100 µM		> 100	> 100		> 100	
CN1CCN(C(=S)N(C)C(=O)c2ccc(Cl)cc2)CC1				> 100 µM			> 100 µM	> 100 µM		> 100 µM				> 100 µM			> 100		> 100	
C[C@]12CCC(=O)C=C1CC[C@@H]1C2CC[C@]2(C)NC(=O)C(C#N)CC12 (some centres not stated)		> 100 µM		> 100 µM			> 100 µM			> 100 µM		> 100 µM		> 100 µM			> 100		> 100	
Cn1c(-c2nonc2N)nc2cnccc21	16	> 25 µM	> 25 µM	> 25 µM		> 25	> 25 µM	> 25 µM	> 25 µM	> 25 µM	> 25000 nM	> 25 µM	> 25	> 25 µM	> 25 µM		> 25	> 12800	> 24	> 25
CC1(C)N=C(N)N=C(N)N1c1ccc(CCCCc2ccc(S(=O)(=O)F)cc2Cl)c(Cl)c1		261 µM		198 µM			142 µM	43.9 µM		158 µM		140 µM				> 500	192		54.7	
COc1ccc(CNC(=O)COc2ccc(/C=N/Nc3nc4ccccc4s3)cc2)cc1			4.57 µM	> 100 µM	3.05	1.67	3.42 µM	> 100 µM			2250 nM	6.76 µM	2.13	> 100 µM	3.25 µM	> 100	11.2	1070	3.29	3.04
COc1ccc(/C=C(/C(=O)O)c2cc(OC)c(OC)c(OC)c2)cc1		> 100 µM		> 100 µM			> 100 µM			> 100 µM		> 100 µM		> 100 µM		> 100			79	
CC1=CCCC(OC(N)=O)C1 (configuration not stated)		> 100 µM		> 100 µM			> 100 µM	> 100 µM				> 100 µM		> 100 µM			> 100		> 100	
CCOC(=O)c1c(N)n(-c2ccccc2)c(=S)n(-c2ccccc2)c1=O				> 100 µM			> 100 µM	> 100 µM		> 100 µM				> 100 µM		> 100	> 100		> 100	
CNC(=O)c1cc(Oc2ccc3c(c2)sc2nc(-c4ccc(N)cc4)cn23)ccn1	0.0762	0.65 µM		> 100 µM		0.75	> 100 µM	> 100 µM	2.01 µM	> 100 µM	211 nM	> 100 µM	0.32	26.3 µM	0.104 µM		> 100	286	> 100	0.904
O=C1CC[C@H]2CNC(=O)C[C@H]2C1		> 100 µM						> 100 µM				> 100 µM		> 100 µM			> 100		> 100	
